Source: ChEMBL document CHEMBL4004887, “Design, synthesis and in vitro activity of 1,4-disubstituted piperazines and piperidines as triple reuptake inhibitors” (Bioorg Med Chem, 2017)

Tests used:
Type in all cases: cell-based
[1] = biological target: Sodium-dependent serotonin transporter (Homo sapiens, UniProt P31645); assay: Inhibition of [3H]-5-hydroxytryptamine reuptake in human SERT expressed in HEK293 cells by microbeta liquid scintillation counting method
[2] = biological target: Sodium-dependent dopamine transporter (Homo sapiens, UniProt Q01959); assay: Inhibition of […] reuptake in human DAT expressed in HEK293 cells by microbeta liquid scintillation counting method
[3] = biological target: Sodium-dependent noradrenaline transporter (Homo sapiens, UniProt P23975); assay: Inhibition of […] reuptake in human NET expressed in HEK293 cells by microbeta liquid scintillation counting method
Sodium-dependent noradrenaline transporter, sequence (P23975 whole entry): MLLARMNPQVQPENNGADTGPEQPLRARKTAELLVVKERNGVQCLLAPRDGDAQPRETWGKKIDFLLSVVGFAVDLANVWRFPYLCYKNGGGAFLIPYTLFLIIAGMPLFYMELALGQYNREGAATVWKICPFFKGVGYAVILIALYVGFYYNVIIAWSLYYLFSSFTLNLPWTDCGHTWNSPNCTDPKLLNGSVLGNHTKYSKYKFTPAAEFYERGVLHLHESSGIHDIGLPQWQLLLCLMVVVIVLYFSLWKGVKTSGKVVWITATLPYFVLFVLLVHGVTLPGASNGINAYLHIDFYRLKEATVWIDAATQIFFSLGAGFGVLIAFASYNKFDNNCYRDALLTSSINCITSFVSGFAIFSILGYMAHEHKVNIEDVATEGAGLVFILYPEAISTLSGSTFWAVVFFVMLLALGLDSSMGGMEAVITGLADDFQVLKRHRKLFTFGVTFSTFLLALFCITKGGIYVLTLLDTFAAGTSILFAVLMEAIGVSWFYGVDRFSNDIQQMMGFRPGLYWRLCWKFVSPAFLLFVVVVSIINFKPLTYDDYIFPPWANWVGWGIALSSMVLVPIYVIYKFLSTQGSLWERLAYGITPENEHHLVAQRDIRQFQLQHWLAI

Sodium-dependent dopamine transporter, sequence (Q01959 whole entry): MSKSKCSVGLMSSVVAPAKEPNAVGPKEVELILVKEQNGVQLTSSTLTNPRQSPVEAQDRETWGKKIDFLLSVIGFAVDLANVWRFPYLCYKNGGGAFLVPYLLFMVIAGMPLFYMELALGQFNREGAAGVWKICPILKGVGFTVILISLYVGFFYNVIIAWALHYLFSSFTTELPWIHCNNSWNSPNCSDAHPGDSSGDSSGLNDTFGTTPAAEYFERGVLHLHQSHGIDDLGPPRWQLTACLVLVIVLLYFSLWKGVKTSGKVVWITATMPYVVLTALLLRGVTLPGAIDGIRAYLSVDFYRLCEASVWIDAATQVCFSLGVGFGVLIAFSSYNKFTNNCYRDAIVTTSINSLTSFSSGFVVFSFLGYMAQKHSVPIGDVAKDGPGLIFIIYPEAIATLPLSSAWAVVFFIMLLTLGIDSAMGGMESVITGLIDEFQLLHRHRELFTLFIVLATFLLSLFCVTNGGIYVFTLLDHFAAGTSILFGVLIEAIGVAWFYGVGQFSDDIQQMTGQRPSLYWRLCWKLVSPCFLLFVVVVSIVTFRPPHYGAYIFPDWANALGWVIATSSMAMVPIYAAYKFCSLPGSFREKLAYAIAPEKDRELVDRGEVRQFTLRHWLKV
Sodium-dependent serotonin transporter, sequence (P31645 whole entry): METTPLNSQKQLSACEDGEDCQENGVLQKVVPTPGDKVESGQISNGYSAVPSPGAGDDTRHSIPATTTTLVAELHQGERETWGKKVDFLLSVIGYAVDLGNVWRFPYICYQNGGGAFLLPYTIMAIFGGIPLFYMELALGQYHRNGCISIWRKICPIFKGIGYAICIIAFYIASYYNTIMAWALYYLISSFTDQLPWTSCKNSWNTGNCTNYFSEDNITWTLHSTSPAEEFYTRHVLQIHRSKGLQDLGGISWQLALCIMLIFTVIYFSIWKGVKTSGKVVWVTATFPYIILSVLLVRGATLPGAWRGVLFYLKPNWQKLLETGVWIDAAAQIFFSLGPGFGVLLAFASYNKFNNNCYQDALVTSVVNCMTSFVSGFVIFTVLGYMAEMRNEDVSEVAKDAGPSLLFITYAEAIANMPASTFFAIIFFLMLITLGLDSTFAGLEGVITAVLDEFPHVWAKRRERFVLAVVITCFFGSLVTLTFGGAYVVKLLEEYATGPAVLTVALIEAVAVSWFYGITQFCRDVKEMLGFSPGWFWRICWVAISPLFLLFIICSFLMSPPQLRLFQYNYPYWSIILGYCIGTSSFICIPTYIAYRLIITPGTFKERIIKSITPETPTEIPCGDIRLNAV

Row | Structure (SMILES) | IC50 [1] | IC50 [2] | IC50 [3]
1 | Fc1ccc(C(OCCN2CCN(c3ccccc3)CC2)c2ccc(F)cc2)cc1 | 1910 nM | 10000 nM | 5330 nM
2 | Fc1ccc(C(OCCN2CCN(c3cccc(Cl)c3Cl)CC2)c2ccc(F)cc2)cc1 | 5000 nM | 3000 nM | 3000 nM
3 | C(=C\c1ccccc1)/CN1CCN(CCCn2nnnc2C(c2ccccc2)c2ccccc2)CC1 | 7500 nM | 2230 nM | 1330 nM
4 | Fc1ccc(C(OCCN2CCN(c3ccc(Cl)c(Cl)c3)CC2)c2ccc(F)cc2)cc1 | 5220 nM | 4100 nM | 1320 nM
5 | Fc1ccc(C(OCCN2CCC(Cc3ccccc3)CC2)c2ccc(F)cc2)cc1 | 1670 nM | 6820 nM | 5860 nM
6 | Fc1ccc(C(OCCN2CCN(c3ncccn3)CC2)c2ccc(F)cc2)cc1 | 1410 nM | 1700 nM | 1620 nM
7 | C(=C\c1ccccc1)/CN1CCN(CCn2nnnc2C(c2ccccc2)c2ccccc2)CC1 | > 10000 nM | 940 nM | 1760 nM
8 | O=C(NCCCN1CCC(Cc2ccccc2)CC1)C(c1ccc(Cl)cc1)c1ccc(Cl)cc1 | 7670 nM | 1350 nM | 2020 nM
9 | Fc1ccc(C(OCCN2CCN(c3cccc(Cl)c3)CC2)c2ccc(F)cc2)cc1 | 4960 nM | 2750 nM | 1310 nM
10 | Fc1ccc(C(OCCN2CCN(c3ccccc3Cl)CC2)c2ccc(F)cc2)cc1 | > 10000 nM | 5600 nM | 1260 nM
11 | Fc1ccc(C(OCCN2CCN(c3ccc(Cl)cc3Cl)CC2)c2ccc(F)cc2)cc1 | 3910 nM | 10000 nM | 3750 nM
12 | Fc1ccc(C(OCCN2CCN(c3ccccn3)CC2)c2ccc(F)cc2)cc1 | 579 nM | 990 nM | 603 nM
13 | Fc1ccc(C(OCCN2CCN(c3ccc(Cl)cc3)CC2)c2ccc(F)cc2)cc1 | 6910 nM | 1390 nM | 1590 nM

The next lines start with the values.

Row | IC50 [1] | IC50 [2] | IC50 [3] | Structure (SMILES)
14 | 1500 nM | 317 nM | 323 nM | c1ccc(CN2CCN(CCCCn3nnnc3C(c3ccccc3)c3ccccc3)CC2)cc1
15 | > 10000 nM | 94 nM | 519 nM | c1ccc(CC2CCN(CCCn3nnnc3C(c3ccccc3)c3ccccc3)CC2)cc1
16 | 4830 nM | 680 nM | 2830 nM | c1ccc(CCN2CCN(CCn3nnnc3C(c3ccccc3)c3ccccc3)CC2)cc1
17 | 1120 nM | 1110 nM | 400 nM | c1ccc(CCN2CCN(CCCn3nnnc3C(c3ccccc3)c3ccccc3)CC2)cc1
18 | > 10000 nM | 630 nM | 8030 nM | O=C(NCCN1CCC(Cc2ccccc2)CC1)C(c1ccc(Cl)cc1)c1ccc(Cl)cc1
19 | 3860 nM | 692 nM | 1470 nM | c1ccc(CCCN2CCN(CCn3nnnc3C(c3ccccc3)c3ccccc3)CC2)cc1
20 | 7700 nM | 310 nM | 1710 nM | c1ccc(CC2CCN(CCn3nnnc3C(c3ccccc3)c3ccccc3)CC2)cc1
21 | 550 nM | 590 nM | 1530 nM | c1ccc(CC2CCN(CCCCn3nnnc3C(c3ccccc3)c3ccccc3)CC2)cc1
22 | 6290 nM | 3640 nM | 318 nM | C(=C\c1ccccc1)/CN1CCN(CCCCn2nnnc2C(c2ccccc2)c2ccccc2)CC1
23 | > 10000 nM | 2290 nM | 4220 nM | c1ccc(CN2CCN(CCn3nnnc3C(c3ccccc3)c3ccccc3)CC2)cc1
24 | > 10000 nM | 1070 nM | 2210 nM | O=C(NCCCN1CCC(Cc2ccccc2)CC1)C(c1ccccc1)c1ccccc1
25 | 5050 nM | 292 nM | 521 nM | c1ccc(CN2CCN(CCCn3nnnc3C(c3ccccc3)c3ccccc3)CC2)cc1
26 | 8000 nM | 608 nM | 329 nM | c1ccc(CCN2CCN(CCCCn3nnnc3C(c3ccccc3)c3ccccc3)CC2)cc1
27 | 8000 nM | 1640 nM | 569 nM | c1ccc(CCCN2CCN(CCCn3nnnc3C(c3ccccc3)c3ccccc3)CC2)cc1
28 | > 10000 nM | 190 nM | 1680 nM | O=C(NCCN1CCC(Cc2ccccc2)CC1)C(c1ccccc1)c1ccccc1
